Legend:
GALAP (Galium aparine) [1] = test: Preemergence herbicidal evaluation; type: in vivo; conditions: Rate 0.2500 kg/ha, rated 4-5 weeks after treatment
Description: (§1) Results of herbicide evaluation are expressed on a rating scale (0-9). The scale is based upon a visual observation of plant stand, vigor, malformation, size, chlorosis and overall plant appearance as compared with a control.
(§2) The preemergence herbicidal activity of the test compounds of the present invention is exemplified by the following tests in which the seeds of a variety of monocotyledonous and dicotyledonous plants are separately mixed with potting soil and planted on top of approximately one inch of soil in separate pint cups. […] The treated cups are then placed on greenhouse benches, watered and cared for in accordance with conventional greenhouse procedures. From four to five weeks after treatment, the tests are terminated and each cup is examined and rated according to the rating system provided in Example 87. The plant species used and the compounds evaluated are the same as those shown in Example 87.

ZEAMX (Corn, Field) [2] = test: Preemergence herbicidal evaluation; type: in vivo, Zea mays, L.; conditions: Rate 0.2500 kg/ha, rated 4-5 weeks after treatment
Description: as §1, §2

GALAP (Galium aparine) [3] = test: Postemergence herbicidal evaluation; type: in vivo; conditions: rate 0.0620 kg/ha
Description: (§3) In the tests, seedling plants are grown in jiffy flats for about two weeks. […] After spraying, the plants are placed on greenhouse benches and are cared for in accordance with conventional greenhouse procedures. From four to five weeks after treatment, the seedling plants are examined and rated according to the rating system set forth below. Where more than one test is involved for a given compound, the data are averaged.
as §1

ZEAMX (Corn, Field) [4] = test: Postemergence herbicidal evaluation; type: in vivo, Zea mays, L.; conditions: rate 0.0620 kg/ha
Description: as §3, §1

ORYSAT (Rice, Tebonnet) [5] = test: Postemergence herbicidal evaluation; type: in vivo, Oryza sativa, (L.) Tebonnet; conditions: rate 0.0620 kg/ha
Description: as §3, §1

[6] = test system: ECHCG (Echinochloa crus-galli); test: Postemergence herbicidal evaluation; type: in vivo, (L.) Beau; conditions: rate 0.0620 kg/ha
Description: as §3, §1

[7] = test system: TRZAWR (Wheat, Winter, cv Riband); test: Preemergence herbicidal evaluation; type: in vivo, Triticum aestivum; conditions: Rate 0.2500 kg/ha, rated 4-5 weeks after treatment
Description: as §1, §2

[8] = test system: IPOHE (Ipomoea hederacea); test: Preemergence herbicidal evaluation; type: in vivo, (L.) Jacq.; conditions: Rate 0.2500 kg/ha, rated 4-5 weeks after treatment
Description: as §1, §2

[9] = test system: SAGPY (Sagittaria pygmaea); test: Flooded paddy, preemergence weed control; type: in vivo, L.; conditions: rate 0.1250 kg/ha, rated 3-4 weeks after treatment, 0-9 rating scale
Description: as §1
(§4) Preemergence herbicidal activity under flooded paddy conditions is determined as follows: plant seeds or propagating organs are planted in the top 0.5 cm of silt loam soil in 32 oz. plastic containers with a diameter of 10.5 cm and no drainage holes. Water is added to these containers and maintained at 1.5 to 3 cm above the soil surface for the duration of the experiment. […] The treated containers are placed on greenhouse benches and cared for in accordance with conventional greenhouse procedures.

[10] = test system: IPOHE (Ipomoea hederacea); test: Postemergence herbicidal evaluation; type: in vivo, (L.) Jacq.; conditions: rate 0.0620 kg/ha
Description: as §3, §1

[11] = test system: TRZAWR (Wheat, Winter, cv Riband); test: Postemergence herbicidal evaluation; type: in vivo, Triticum aestivum; conditions: rate 0.0620 kg/ha
Description: as §3, §1

CYPIR (Cyperus iria) = test: Flooded paddy, preemergence weed control; type: in vivo; conditions: rate 0.1250 kg/ha, rated 3-4 weeks after treatment, 0-9 rating scale
Description: as §1, §4

[12] = test system: ECHORC (Echinochloa oryzoides); test: Flooded paddy, preemergence weed control; type: in vivo, Echinochloa oryzoides (Ard.) Fritsch.; conditions: rate 0.1250 kg/ha, rated 3-4 weeks after treatment, 0-9 rating scale
Description: as §1, §4

[13] = test system: ABUTH (Abutilon theophrasti); test: Preemergence herbicidal evaluation; type: in vivo, Medic.; conditions: Rate 0.2500 kg/ha, rated 4-5 weeks after treatment
Description: as §1, §2

[14] = test system: CYPSE (Cyperus serotinus); test: Flooded paddy, preemergence weed control; type: in vivo, Rottb.; conditions: rate 0.1250 kg/ha, rated 3-4 weeks after treatment, 0-9 rating scale
Description: as §1
Preemergence herbicidal activity under flooded paddy conditions is determined as follows: plant seeds or propagating organs are planted in the top 0.5 cm of silt loam soil in 32 oz. plastic containers with a diameter of 10.5 cm and no drainage holes. Water is added to these containers and maintained at 1.5 to 3 cm above the soil surface for the duration of the experiment. The test compounds are applied as aqueous/acetone mixtures 50/50 v/v pipetted directly into the flood water to give the equivalent of about 0.0080 to 0.1250 kg/ha of active ingredient. The treated containers are placed on greenhouse benches and cared for in accordance with conventional greenhouse procedures. Three to four weeks after treatment, the test is terminated and each container is examined and herbicidal effect rated according to the rating system provided in Example 87.

SETVI (Setaria viridis) [15] = test: Postemergence herbicidal evaluation; type: in vivo, (L.) Beau; conditions: rate 0.0620 kg/ha
Description: In the tests, seedling plants are grown in jiffy flats for about two weeks. The test compounds are dispersed in 50/50 acetone/water mixtures containing 0.5% TWEEN® 20, a polyoxyethylene sorbitan monolaurate surfactant of Atlas Chemical Industries, in sufficient quantities to provide the equivalent of about 0.0040 kg to 1.000 kg per hectare of active compound when applied to the plants through a spray nozzle operating at 40 psi for a predetermined time. After spraying, the plants are placed on greenhouse benches and are cared for in accordance with conventional greenhouse procedures. From four to five weeks after treatment, the seedling plants are examined and rated according to the rating system set forth below. Where more than one test is involved for a given compound, the data are averaged.
as §1

SETVI (Setaria viridis) [16] = test: Preemergence herbicidal evaluation; type: in vivo, (L.) Beau; conditions: Rate 0.2500 kg/ha, rated 4-5 weeks after treatment
Description: as §1, §2

[17] = test system: ECHCG (Echinochloa crus-galli); test: Preemergence herbicidal evaluation; type: in vivo, (L.) Beau; conditions: Rate 0.2500 kg/ha, rated 4-5 weeks after treatment
Description: as §1, §2

[18] = test system: ABUTH (Abutilon theophrasti); test: Postemergence herbicidal evaluation; type: in vivo, Medic.; conditions: rate 0.0620 kg/ha
Description: as §3, §1

ORYSAT (Rice, Tebonnet) [19] = test: Preemergence herbicidal evaluation; type: in vivo, Oryza sativa, (L.) Tebonnet; conditions: Rate 0.2500 kg/ha, rated 4-5 weeks after treatment
Description: as §1, §2

[20] = test system: AMBEL (Ambrosia artemisifolia); test: Postemergence herbicidal evaluation; type: in vivo, L.; conditions: rate 0.0620 kg/ha
Description: as §3, §1

[21] = test system: CASOB (Cassia obtusifolia); test: Postemergence herbicidal evaluation; type: in vivo, L.; conditions: rate 0.0620 kg/ha
Description: as §3, §1

ORYSAT (Rice, Tebonnet) [22] = test: Flooded paddy, post-transplant rice tolerance; type: in vivo, Oryza sativa, (L.) Tebonnet
Description: as §1
The tolerance of transplanted rice to post-transplanted herbicide application is determined as follows: two ten-day-old rice seedlings (cv. Tebonnet) are transplanted into silt loam soil in 32 oz. plastic containers with a diameter of 10.5 cm and no drainage holes. After transplanting, the containers are flooded and the water level is maintained at 1.5 to 3 cm above the soil surface. […] The treated containers are placed on greenhouse benches, watered such that the water level is maintained as stated above, and cared for in accordance with conventional greenhouse procedures.

[23] = test system: GLXMAW (Soybean, Williams); test: Preemergence herbicidal evaluation; type: in vivo, Glycine max, (L.) Merr. cv Williams; conditions: Rate 0.2500 kg/ha, rated 4-5 weeks after treatment
Description: as §1, §2

[24] = test system: CHEAL (Chenopodium album); test: Preemergence herbicidal evaluation; type: in vivo, L.; conditions: Rate 0.2500 kg/ha, rated 4-5 weeks after treatment
Description: as §1, §2

[25] = test system: AMBEL (Ambrosia artemisifolia); test: Preemergence herbicidal evaluation; type: in vivo, L.; conditions: Rate 0.2500 kg/ha, rated 4-5 weeks after treatment
Description: as §1, §2

[26] = test system: CASOB (Cassia obtusifolia); test: Preemergence herbicidal evaluation; type: in vivo, L.; conditions: Rate 0.2500 kg/ha, rated 4-5 weeks after treatment
Description: as §1, §2

[27] = test system: GLXMAW (Soybean, Williams); test: Postemergence herbicidal evaluation; type: in vivo, Glycine max, (L.) Merr. cv Williams; conditions: rate 0.0620 kg/ha
Description: as §3, §1

[28] = test system: MOOVA (Monochoria vaginalis); test: Flooded paddy, preemergence weed control; type: in vivo, Presl.; conditions: rate 0.1250 kg/ha, rated 3-4 weeks after treatment, 0-9 rating scale
Description: as §1, §4

[29] = test system: CHEAL (Chenopodium album); test: Postemergence herbicidal evaluation; type: in vivo, L.; conditions: postemergence, rate 0.0620 kg/ha
Description: as §3, §1

Cn1c(C(F)(F)F)cc(=O)n(-c2ccc3c(c2)C(c2cccc[n+]2[O-])=NS3(=O)=O)c1=O [Compound 15, 1-methyl-3-[3-(2-pyridyl)-1,2-benzisothiazol-5-yl]-6-(trifluoromethyl)uracil N′,S,S-trioxide]
6.0: IPOHE preemergence herbicidal rating ([8]; preemergence) | Postemergence herbicidal rating, ABUTH [18]
1.0: ZEAMX preemergence herbicidal rating (ZEAMX (Corn, Field) [2]; preemergence) | Postemergence herbicidal rating, GALAP (GALAP (Galium aparine) [3]) | Postemergence herbicidal rating, ECHCG [6] | Postemergence herbicidal rating, SETVI (SETVI (Setaria viridis) [15]) | Postemergence herbicidal rating, CASOB [21]
3.0: TRZAWR preemergence herbicidal rating ([7]; preemergence) | ORYSAT preemergence herbicidal rating (ORYSAT (Rice, Tebonnet) [19]; preemergence)
5.0: Postemergence herbicidal rating, ZEAMX (ZEAMX (Corn, Field) [4]) | SETVI preemergence herbicidal rating (SETVI (Setaria viridis) [16]; preemergence) | ECHCG preemergence herbicidal rating ([17]; preemergence) | Postemergence herbicidal rating, GLXMAW [27]
0.0: GALAP preemergence herbicidal rating (GALAP (Galium aparine) [1]; preemergence) | herbicidal rating, SAGPY [9] | herbicidal rating, CYPIR (CYPIR (Cyperus iria)) | herbicidal rating, ECHORC [12] | herbicidal rating, CYPSE [14] | herbicidal rating, ORYSAT (rice tolerance) (ORYSAT (Rice, Tebonnet) [22]; in vivo) | CASOB preemergence herbicidal rating ([26]; preemergence)
3.5: Postemergence herbicidal rating, ORYSAT (ORYSAT (Rice, Tebonnet) [5]) | Postemergence herbicidal rating, TRZAWR [11]
2.0: GLXMAW preemergence herbicidal rating ([23]; preemergence)
7.0: ABUTH preemergence herbicidal rating ([13]; preemergence) | AMBEL preemergence herbicidal rating ([25]; preemergence)
9.0: Postemergence herbicidal rating, IPOHE [10] | Postemergence herbicidal rating, AMBEL [20] | CHEAL preemergence herbicidal rating ([24]; preemergence)

Cn1c(C(F)(F)F)cc(=O)n(-c2ccc3snc(C4OCC(CBr)O4)c3c2)c1=O (stereo not drawn) [Compound 79, 3-[3-[4-(bromomethyl)-1,3-dioxolan-2-yl]-1,2-benzisothiazol-5-yl]-1-methyl-6-(trifluoromethyl)uracil]
7.0: Preemergence herbicidal rating ZEAMX (ZEAMX (Corn, Field) [2]) | Preemergence herbicidal rating IPOHE [8] | herbicidal rating, ORYSAT (rice tolerance) (ORYSAT (Rice, Tebonnet) [22]; flooded paddy, post-transplant rice, rate 0.1250 kg/ha, rated 3-4 weeks after treatment, 0-9 rating scale)
6.0: SETVI herbicidal rating (SETVI (Setaria viridis) [15]; postemergence) | CASOB herbicidal rating ([21]; postemergence) | GLXMAW herbicidal rating ([27]; postemergence)
4.0: GALAP herbicidal rating (GALAP (Galium aparine) [3]; postemergence) | ECHCG herbicidal rating ([6]; postemergence)
3.5: ZEAMX herbicidal rating (ZEAMX (Corn, Field) [4]; postemergence) | ORYSAT herbicidal rating (ORYSAT (Rice, Tebonnet) [5]; postemergence)
2.5: TRZAWR herbicidal rating ([11]; postemergence)
9.0: Preemergence herbicidal rating GALAP (GALAP (Galium aparine) [1]) | herbicidal rating, CYPIR (CYPIR (Cyperus iria)) | herbicidal rating, ECHORC [12] | Preemergence herbicidal rating ABUTH [13] | herbicidal rating, MOOVA [28] | Preemergence herbicidal rating SETVI (SETVI (Setaria viridis) [16]) | Preemergence herbicidal rating ECHCG [17] | ABUTH herbicidal rating ([18]; postemergence) | CHEAL herbicidal rating [29] | AMBEL herbicidal rating ([20]; postemergence) | Preemergence herbicidal rating GLXMAW [23] | Preemergence herbicidal rating CHEAL [24] | Preemergence herbicidal rating AMBEL [25] | Preemergence herbicidal rating CASOB [26]
8.0: Preemergence herbicidal rating TRZAWR [7] | IPOHE herbicidal rating ([10]; postemergence) | Preemergence herbicidal rating ORYSAT (ORYSAT (Rice, Tebonnet) [19])
3.0: herbicidal rating, SAGPY [9]

From patent US6706663B2, “Herbicidal 3-heterocyclic substituted benzisothiazole and benzisoxazole compounds” (Wyeth, priority 2000, dated 2004)
